From ChEMBL document CHEMBL5154745, “Synthesis and antiviral activities of quinazolinamine-coumarin conjugates toward chikungunya and hepatitis C viruses” (Eur J Med Chem, 2022)

Legend:
[1] = Cytotoxicity against human HEL cells measured after 3 days by coulter counting method; assay type: toxicity, cell-based; settings: time 3 day
Chikungunya virus [2] = assay: Antiviral activity against CHIKV 899 infected in African green monkey Vero cells measured after 7 days; assay type: functional, organism-based; settings: Chikungunya virus, 899, Vero, 168 h
[3] = Selectivity index, ratio of CC50 for cytotoxicity against human cells over EC50 for antiviral activity against CHIKV 899 infected in African green monkey Vero cells; assay type: toxicity, cell-based; settings: read-out: Ratio CC50/EC50
[4] = Lipophilicity, log P of the compound; assay type: physicochemical; settings: octanol/water
Hepatitis C virus = assay: Antiviral activity against HCV infected in human Huh-5-2 cells assessed as reduction in viral replication measured by Luciferase reporter gene assay; assay type: functional, organism-based, Hepacivirus hominis
Chikungunya virus [5] = assay: Antiviral activity against CHIKV assessed as inhibition of viral replication; assay type: functional, organism-based

Row | SMILES | CC50 at 72 h [1] [µM] | EC50 (Chikungunya virus [2]) [µM] | selectivity ratio [3] | logP [4] | EC50 (Hepatitis C virus) [µM] | EC50 (Chikungunya virus [5]) [µM]
1 | COc1ccc(CNc2nc(S)nc3ccccc23)cc1 | > 336 | 329 | > 1 | – | – | –
2 | Sc1nc(Nc2ccncc2)c2ccccc2n1 | 242 | 220 | 1.1 | – | – | –
3 | CC(C)(C)c1ccc2oc(=O)cc(CSc3nc(Nc4ccncc4)c4ccccc4n3)c2c1 | 17.3 | 1.96 | 8.8 | 3.93 | – | –
4 | Cc1cccc(Nc2nc(SCc3cc(=O)oc4ccc(C(C)(C)C)cc34)nc3ccccc23)c1C | 150 | 13.9 | 10.8 | 5.04 | 16.6 | –
5 | CC(C)(C)c1ccc2oc(=O)cc(CSc3nc(Nc4cccc5ccccc45)c4ccccc4n3)c2c1 | – | > 193 | – | – | – | –
6 | COc1ccccc1Nc1nc(SCc2cc(=O)oc3ccc(C(C)(C)C)cc23)nc2ccccc12 | 51.9 | 3.08 | 16.8 | 4.76 | – | –
7 | Cc1ccc(Nc2nc(S)nc3ccccc23)c(C)c1 | 142 | 59.4 | 2.4 | – | – | –
8 | Sc1nc(Nc2cccc3ccccc23)c2ccccc2n1 | 118 | 16.1 | 7.4 | – | – | –
9 | Cc1cc(C)nc(Nc2nc(S)nc3ccccc23)c1 | – | > 33.2 | – | – | – | –
10 | Cc1cccc(Nc2nc(S)nc3ccccc23)c1C | 131 | 39.1 | 3.4 | – | – | –
11 | CC(C)(C)c1ccc2oc(=O)cc(CSc3nc(Nc4ccccc4)c4ccccc4n3)c2c1 | 147 | 3.95 | 37.2 | 4.88 | – | –
12 | Cc1ccc(Nc2nc(SCc3cc(=O)oc4ccc(C(C)(C)C)cc34)nc3ccccc23)c(C)c1 | 84.6 | 3.11 | – | 5.03 | 27.9 | –
13 | COc1cc2oc(=O)cc(CSc3nc(Nc4ccccc4)c4ccccc4n3)c2cc1OC | – | > 212 | – | – | – | –
14 | COc1ccccc1Nc1nc(S)nc2ccccc12 | 290 | 224 | 1.3 | – | – | –
15 | Cc1ccc2oc(=O)cc(CSc3nc(Nc4ccccc4)c4ccccc4n3)c2c1 | – | > 47 | – | – | – | –
16 | CC(C)(C)c1ccc2oc(=O)cc(CSc3nc(N(Cc4ccccc4)c4ccccc4)c4ccccc4n3)c2c1 | – | > 180 | – | – | – | –
17 | O=c1cc(CSc2nc(Nc3ccccc3)c3ccccc3n2)c2ccc(O)cc2o1 | – | > 234 | – | – | – | –
18 | Cc1cc(C)nc(Nc2nc(SCc3cc(=O)oc4ccc(C(C)(C)C)cc34)nc3ccccc23)c1 | – | > 151 | – | – | – | –
19 | COc1ccc(CNc2nc(SCc3cc(=O)oc4ccc(C(C)(C)C)cc34)nc3ccccc23)cc1 | > 147 | 85.3 | > 1.7 | – | – | –
20 | Sc1nc(Nc2ccccc2)c2ccccc2n1 | 275 | 108 | 2.5 | – | – | –
21 | O=c1ccc2ccccc2o1 [COUMARIN] | > 500 | – | – | – | > 150 | –
22 | Cc1ccc(C(=O)Nc2ccc(S(=O)(=O)O)c3cc(S(=O)(=O)O)cc(S(=O)(=O)O)c23)cc1NC(=O)c1cccc(NC(=O)Nc2cccc(C(=O)Nc3cc(C(=O)Nc4ccc(S(=O)(=O)O)c5cc(S(=O)(=O)O)cc(S(=O)(=O)O)c45)ccc3C)c2)c1 [SURAMIN] | – | – | – | – | – | 80
